Test results: US20060153936A1, “Flavonoid solubilizing agent and method of solubilizing flavonoid” (priority 2003, published 2006)
Like-named read-outs stand apart in the source and are kept apart here.

Columns and labels:
[1] = Naringin dissolution amount with solubilizing agent (Example 4); assay type: physicochemical; conditions: without additive; naringin 100 mg in ultrapure water 10 mL; 80° C. one hour, equilibrated 10° C. 48 hours
Procedure: Ultrapure water 10 mL was added to commercially available naringin (flavanones, purity: 95% or more, manufactured by Sigma Inc.) 100 mg and the same solubilizing agent as that used in Example 1, and the mixture was stirred at 80° C. for one hour. Then, after it was equilibrated at 10° C. for 48 hours, the supernatant was collected by centrifugation. The OD254 in the supernatant was measured and a naringin dissolution amount was calculated by the following equation 4. naringin dissolution amount (mg/100 mL)=(OD254 in sample supernatant−OD254 in control supernatant)/naringin specific absorbance×1000

[2] = Storage stability of naringin supernatant at 10° C., visual examination (Example 4); assay type: physicochemical; conditions: naringin supernatant without additive, 95° C. 15 minutes, stored 10° C. one month
Procedure: (§1) Further, the supernatant was placed in a test tube, and after it was pasteurized by heating at 95° C. for 15 minutes, it was stored at 10° C. for one month to observe the formation of a precipitate by visual examination.

[3] = Isoflavone dissolution amount by HPLC with malonyl daidzin (Example 6); assay type: physicochemical; conditions: for dissolution amount of malonyl daidzin itself: share of malonyl daidzin in the isoflavone amount of the supernatant, 10° C.
Procedure: (§2) Ultrapure water 1 mL was added to a commercially available soybean isoflavone (trade name “Honen Isoflavone-80”, manufactured by Honen Corporation) 12.5 mg (10 mg of isoflavone glycoside) and a commercially available malonyl isoflavone glycoside, malonyl daidzin (purity: 90% or more, manufactured by Wako Pure Chemicals, Co., Ltd.) 1 mg, and the mixture was stirred at 25° C. for one hour. Then, after it was equilibrated at 10° C. for 48 hours, the supernatant was collected by centrifugation and an isoflavone dissolution amount was measured by HPLC. Further, the supernatant was placed in a test tube, it was stored as such at 10° C. for one month to observe the formation of a precipitate by visual examination.

[4] = assay type: physicochemical
Procedure: as §2

[5] = Storage stability of hesperidin supernatant at 10° C., visual examination (Example 3); assay type: physicochemical; conditions: hesperidin supernatant without additive, 95° C. 15 minutes, stored 10° C. one month
Procedure: as §1

[6] = Hesperidin dissolution amount with solubilizing agent (Example 3); assay type: physicochemical; conditions: without additive; hesperidin 100 mg in ultrapure water 10 mL; 80° C. one hour, equilibrated 10° C. 48 hours
Procedure: Then, after it was equilibrated at 10° C. for 48 hours, the supernatant was collected by centrifugation. The OD254 of the supernatant was measured and a hesperidin dissolution amount was calculated by the following equation 3. hesperidin dissolution amount (mg/100 mL)=(OD254 in sample supernatant−OD254 in control supernatant)/hesperidin specific absorbance×1000

[7] = Storage stability of rutin supernatant at 10° C., visual examination (Example 2); assay type: physicochemical; conditions: rutin supernatant without additive, 95° C. 15 minutes, stored 10° C. one month
Procedure: Further, the supernatant was placed in a test tube, after it was pasteurized by heating at 95° C. for 15 minutes, it was stored at 10° C. for one month to observe the formation of a precipitate by visual examination.

[8] = Baicalin dissolution amount with solubilizing agent (Example 1); assay type: physicochemical; conditions: without additive; baicalin 100 mg in ultrapure water 10 mL; 80° C. one hour, equilibrated 10° C. 48 hours
Procedure: Then, after the mixture was equilibrated at 10° C. for 48 hours, the supernatant was collected by centrifugation. The OD254 of the supernatant was measured and the dissolution amount of baicalin was calculated by the following equation 1. baicalin dissolution amount (mg/100 mL)=(OD254 in sample supernatant−OD254 in control supernatant)/baicalin specific absorbance×1000

[9] = Storage stability of baicalin supernatant at 10° C., visual examination (Example 1); assay type: physicochemical; conditions: baicalin supernatant without additive, 95° C. 15 minutes, stored 10° C. one month
Procedure: Further, the supernatant was placed in a test tube and, after it was pasteurized by heating at 95° C. for 15 minutes, it was stored at 10° C. for one month to observe the formation of a precipitate by visual examination.

## C[C@@H]1O[C@@H](O[C@H]2[C@H](Oc3cc(O)c4c(c3)O[C@H](c3ccc(O)cc3)CC4=O)O[C@H](CO)[C@@H](O)[C@@H]2O)[C@H](O)[C@H](O)[C@H]1O [Naringin, naringin]
[1]
  Naringin dissolution amount: 68.0 mg/100 mL
[2]
  Storage stability (10° C.): precipitate

## O=C(O)CC(=O)OC[C@H]1O[C@@H](Oc2ccc3c(=O)c(-c4ccc(O)cc4)coc3c2)[C@H](O)[C@@H](O)[C@@H]1O [Malonyl daidzin, malonyl daidzin]
[3]; Honen Isoflavone-80 12.5 mg + malonyl daidzin 1 mg in ultrapure water 1 mL, 25° C. one hour, equilibrated 10° C. 48 hours, HPLC, total including malonyl daidzin
  Isoflavone amount: 106.3 mg/100 mL
[3]; in the co-presence of malonyl daidzin, malonyl daidzin's own amount deducted
  solubilizing magnifying power of the isoflavone glycoside: 2.9 fold
[3]; HPLC
  dissolution amount of malonyl daidzin itself: (including 56.9 of mg/100 mL
[3]; HPLC, listed as malonyl daidzin
  dissolution amount of malonyl daidzin itself: 56.9 mg/100 mL
[4]
  Storage stability (10° C.): No precipitate

## COc1ccc([C@@H]2CC(=O)c3c(O)cc(O[C@@H]4O[C@H](CO[C@@H]5O[C@@H](C)[C@H](O)[C@@H](O)[C@H]5O)[C@@H](O)[C@H](O)[C@H]4O)cc3O2)cc1O [Hesperidin, hesperidin]
[5]
  Storage stability (10° C.): precipitate
[6]
  Hesperidin dissolution amount: 8.6 mg/100 mL

## C[C@@H]1O[C@@H](OC[C@H]2O[C@@H](Oc3c(-c4ccc(O)c(O)c4)oc4cc(O)cc(O)c4c3=O)[C@H](O)[C@@H](O)[C@@H]2O)[C@H](O)[C@H](O)[C@H]1O [Rutin, rutin]
[7]
  Storage stability (10° C.): precipitate

## O=C(O)[C@H]1O[C@@H](Oc2cc3oc(-c4ccccc4)cc(=O)c3c(O)c2O)[C@H](O)[C@@H](O)[C@@H]1O [Baicalin, baicalin]
[8]
  Baicalin dissolution amount: 12.4 mg/100 mL
[9]
  Storage stability (10° C.): precipitate
